Assay results reported in patent US6624182B1, “Hydroxyphenylvinylthiazoles” (Ciba Specialty Chemicals Corporation, priority 1999, dated 2003).

How the values were obtained:
Experiment in all cases: Determination of the minimum inhibitory concentration (MIC value) in microtitre plates
S. aureus = assay type: cell-based; conditions: optical density at 620 nm, 48 hours at 37° C., MIC = ≦20% growth; tested at 100; 10 and 1 ppm (approximate values); (2), (3), (4) at 120; 60; 30; 15; 7.5; 3.75 ppm
Excerpt: (§1) Determination of the Minimum Inhibitory Concentration (MIC Value) in Microtitre Plates Nutrient Medium Casein/soybean flour/peptone bouillon for the preparation of preliminary cultures of the test bacteria and yeast. Mycological slant agar for the preliminary culture of moulds Examples of Test Microbes: Bacteria: Staphylococcus hominis DMS 20328 Procedure: The test substances are pre-dissolved in dimethyl sulfoxide (DMSO) and tested in a series of dilutions of 1:2. Bacteria and yeast are cultured overnight in CASO bouillon; the mould is cultured on myco-logical slant agar and sponged off with 10 ml of 0.85% sodium chloride solution (+0.1% Triton X-100). All the test microbes are adjusted to a germ count of 1−5×10^6 KBE/ml using 0.85% sodium chloride solution. The test substances are pre-pipetted into microtitre plates in an amount of 8 μl per well. Pre-diluted microbe suspensions are diluted 1:100 in CASO bouillon (bacteria and yeast) or Sabouraud 2% glucose bouillon (mould) and added to the test substances in an amount of 192 μl per well. The test batches are incubated for 48 hours at 37° C. (bacteria and yeast) or for 5 days at 28° C. (mould). After incubation, the growth is determined by means of the clouding of the test batches (optical density) at 620 nm in a microplate reader. The concentration of substance at which (compared with the growth control) a marked inhibition of growth (≦20% growth) of the test microbes can be observed is given as the minimum inhibitory concentration (MIC value). One microtitre plate is used per test microbe and substance concentration. All substances are tested in duplicate.

E. coli = assay type: cell-based, Escherichia coli NCTC 8196; conditions: optical density at 620 nm, 48 hours at 37° C., MIC = ≦20% growth; tested at 100; 10 and 1 ppm (approximate values); (2), (3), (4) at 120; 60; 30; 15; 7.5; 3.75 ppm
Protocol: as §1, with “Escherichia coli NCTC 8196” for “Staphylococcus hominis DMS 20328”

P. aeruginosa = assay type: cell-based, Pseudomonas aeruginosa CIP A-22; conditions: optical density at 620 nm, 48 hours at 37° C., MIC = ≦20% growth; tested at 100; 10 and 1 ppm (approximate values); (2), (3), (4) at 120; 60; 30; 15; 7.5; 3.75 ppm
Protocol: as §1, with “Pseudomonas aeruginosa CIP A-22” for “Staphylococcus hominis DMS 20328”

C. albicans = assay type: cell-based, Candida albicans ATCC 10231; conditions: optical density at 620 nm, 48 hours at 37° C., MIC = ≦20% growth; tested at 100; 10 and 1 ppm (approximate values); (2), (3), (4) at 120; 60; 30; 15; 7.5; 3.75 ppm
Protocol: as §1, with “Yeast: Candida albicans ATCC 10231” for “Bacteria: Staphylococcus hominis DMS 20328”

A. niger = assay type: cell-based, Aspergillus niger ATCC 6275; conditions: optical density at 620 nm, 5 days at 28° C., MIC = ≦20% growth; tested at 100; 10 and 1 ppm (approximate values); (2), (3), (4) at 120; 60; 30; 15; 7.5; 3.75 ppm
Protocol: as §1, with “Mould: Aspergillus niger ATCC 6275” for “Bacteria: Staphylococcus hominis DMS 20328”

COc1cc(/C=C/c2nc(C(C)(C)C)cs2)cc(O)c1OC [Compound of formula (22)]
>100 ppm: MIC values in ppm S. aureus (S. aureus) | MIC values in ppm E. coli (E. coli) | MIC values in ppm P. aeruginosa (P. aeruginosa) | MIC values in ppm C. albicans (C. albicans) | MIC values in ppm A. niger (A. niger)

COc1cc(/C=C/c2nc(-c3ccc(F)cc3)cs2)ccc1O [Compound of formula (8)]
>100 ppm: MIC values in ppm S. aureus (S. aureus) | MIC values in ppm E. coli (E. coli) | MIC values in ppm P. aeruginosa (P. aeruginosa) | MIC values in ppm C. albicans (C. albicans) | MIC values in ppm A. niger (A. niger)

COc1ccc(/C=C/c2nc(-c3ccc(N4CCCC4)cc3)cs2)c(O)c1 [Compound of formula (32)]
>100 ppm: MIC values in ppm S. aureus (S. aureus) | MIC values in ppm E. coli (E. coli) | MIC values in ppm P. aeruginosa (P. aeruginosa) | MIC values in ppm C. albicans (C. albicans) | MIC values in ppm A. niger (A. niger)

Cc1cccc(/C=C/c2nc(-c3ccccc3)cs2)c1O [Compound of formula (59)]
>100 ppm: MIC values in ppm S. aureus (S. aureus) | MIC values in ppm E. coli (E. coli) | MIC values in ppm P. aeruginosa (P. aeruginosa) | MIC values in ppm C. albicans (C. albicans) | MIC values in ppm A. niger (A. niger)

CC(C)(C)c1csc(/C=C/c2ccc(O)cc2)n1 [Compound of formula (16)]
>100 ppm: MIC values in ppm S. aureus (S. aureus) | MIC values in ppm E. coli (E. coli) | MIC values in ppm P. aeruginosa (P. aeruginosa) | MIC values in ppm C. albicans (C. albicans) | MIC values in ppm A. niger (A. niger)

CC(C)(C)c1csc(/C=C/c2ccc(OCc3ccccc3)cc2O)n1 [Compound of formula (25)]
>100 ppm: MIC values in ppm S. aureus (S. aureus) | MIC values in ppm E. coli (E. coli) | MIC values in ppm P. aeruginosa (P. aeruginosa) | MIC values in ppm C. albicans (C. albicans) | MIC values in ppm A. niger (A. niger)

CCc1csc(/C=C/c2ccc(O)cc2)n1 [Compound of formula (39)]
>100 ppm: MIC values in ppm S. aureus (S. aureus) | MIC values in ppm E. coli (E. coli) | MIC values in ppm P. aeruginosa (P. aeruginosa) | MIC values in ppm C. albicans (C. albicans) | MIC values in ppm A. niger (A. niger)

Cc1cc(/C=C/c2nc(-c3ccc(F)cc3)cs2)cc(C)c1O [Compound of formula (12)]
>100 ppm: MIC values in ppm S. aureus (S. aureus) | MIC values in ppm E. coli (E. coli) | MIC values in ppm P. aeruginosa (P. aeruginosa) | MIC values in ppm C. albicans (C. albicans) | MIC values in ppm A. niger (A. niger)

COc1ccc(/C=C/c2nc(-c3ccccc3)cs2)c(O)c1 [Compound of formula (55)]
>100 ppm: MIC values in ppm S. aureus (S. aureus) | MIC values in ppm E. coli (E. coli) | MIC values in ppm P. aeruginosa (P. aeruginosa) | MIC values in ppm C. albicans (C. albicans) | MIC values in ppm A. niger (A. niger)

CCc1csc(/C=C/c2cc(O)c(OC)c(OC)c2)n1 [Compound of formula (46)]
>100 ppm: MIC values in ppm S. aureus (S. aureus) | MIC values in ppm E. coli (E. coli) | MIC values in ppm P. aeruginosa (P. aeruginosa) | MIC values in ppm C. albicans (C. albicans) | MIC values in ppm A. niger (A. niger)

COc1cc(/C=C/c2nc(-c3ccccc3)cs2)ccc1O [Compound of formula (54)]
>100 ppm: MIC values in ppm S. aureus (S. aureus) | MIC values in ppm E. coli (E. coli) | MIC values in ppm P. aeruginosa (P. aeruginosa) | MIC values in ppm C. albicans (C. albicans) | MIC values in ppm A. niger (A. niger)

COc1cc(O)ccc1/C=C/c1nc(-c2ccc(F)cc2)cs1 [Compound of formula (15)]
>100 ppm: MIC values in ppm S. aureus (S. aureus) | MIC values in ppm E. coli (E. coli) | MIC values in ppm P. aeruginosa (P. aeruginosa) | MIC values in ppm C. albicans (C. albicans) | MIC values in ppm A. niger (A. niger)

CCOc1cc(/C=C/c2nc(-c3ccc(N4CCCC4)cc3)cs2)ccc1O [Compound of formula (30)]
>100 ppm: MIC values in ppm S. aureus (S. aureus) | MIC values in ppm E. coli (E. coli) | MIC values in ppm P. aeruginosa (P. aeruginosa) | MIC values in ppm C. albicans (C. albicans) | MIC values in ppm A. niger (A. niger)

COc1ccc(/C=C/c2nc(-c3ccc(F)cc3)cs2)c(O)c1 [Compound of formula (9)]
>100 ppm: MIC values in ppm S. aureus (S. aureus) | MIC values in ppm E. coli (E. coli) | MIC values in ppm P. aeruginosa (P. aeruginosa) | MIC values in ppm C. albicans (C. albicans) | MIC values in ppm A. niger (A. niger)
